Like-named read-outs stand apart in the source and are kept apart here.
Assays:
Type in all cases: cell-based, human
[1] = system: p-ERK in MIA PaCa2 cells (Kras G12C mutation); experiment: Cell p-ERK detection experiment (HTRF) in MIA PaCa2 cells; settings: compound 2 hours
Description: MIA PaCa2 was a human pancreatic cancer cell line with Kras G12C mutation, cultured in 10% FBS+2.5% Horse serum DMEM medium. The cells in the logarithmic growth phase were taken, digested with enzyme EDTA, collected, counted and 2.5E4 cells were seeded in a 96-well cell culture plate, cultured overnight. DMSO was used to prepare 1000× compound 3.16-fold gradient concentration stock solution, and medium was used to dilute 200-fold to 5× compound stock solution. On the second day after cell seeding, 5× compound stock solution was added to each cell culture well, the final concentration was 1×, and DMSO content was 0.1%. DMSO was used as an experimental control (control). After the compound was added and cultured for two hours, the remaining medium was removed. 50 ul cell lysis buffer was added to each well, mixed and incubated for 30 minutes, then 16 ul of the mixture was transferred to a 96-well plate with a non-transparent white bottom, and 16 ul cell lysis buffer was added to blank wells. After the completion of the transfer, 4 ul p-ERK HTRF antibody mixture was added to each well, incubated for 4 hours and the fluorescence value was read. The compound inhibition rate IR (%)=(RLU control-RLU compound)/(RLU control-RLU blank)×100% was calculated, Prism 8 four-parameter method was used to fit the compound's gradient dilution concentration and the corresponding cell proliferation inhibition rate, and the IC50 value was calculate.

[2] = system: A549 cells (Kras G12S mutation); experiment: Cell proliferation inhibition experiment, 3D model, CellTiter-Glo (A549); settings: A549, 3D sphere plate, 5 days, 2% FBS
Description: (§1) NCI-H358 was a human non-small cell lung cancer cell line with Kras G12C mutation, cultured in 10% FBS RPMI-1640 medium; A549 was a human lung adenocarcinoma cell line with Kras G12S mutation, cultured in 10% FBS F-12K medium. The cells in the logarithmic growth phase was taken, digested with trypsin EDTA, collected and counted, and H358 was adjusted to 1.8E4 cells/ml using 2% FBS RPMI-1640 medium, and A549 was adjusted to 8.9E3 cells/ml using 2% FBS F-12K medium; 800 (45 μl) H358 or 400 (45 μl) A549 cells were seeded in a 384-well sphere plate respectively, cultured overnight to establish a 3D cell model. DMSO was used to prepare 1000× compound 3.16-fold gradient concentration stock solution, and 2% FBS medium was used to dilute 100-fold to 10× compound stock solution. On the second day after cell seeding, 5 μl 10× compound stock solution was added to each cell culture well, the final concentration was 1×, and DMSO content was 0.1%. DMSO was used as the experimental control (control) and 2% FBS medium as the blank control (blank). After the compound and cells were added and cultured for 5 days, 25 μl CellTiter-Glo working solution was added to each well, mixed at 400 rpm and incubated for 30 minutes. After 30 minutes at room temperature, 40 μl of the mixture was transferred to a 384-well plate with a non-transparent white bottom, the luminescence chemiluminescence value was read, and the cells proliferation inhibition rate IR (%)=(RLU control-RLU compound)/(RLU control-RLU blank)×100% was calculated, Prism 6 four-parameter method was used to fit the compound's gradient dilution concentration and the corresponding cell proliferation inhibition rate, and the IC50 value was calculate.

[3] = system: NCI-H358 cells (Kras G12C mutation); experiment: Cell proliferation inhibition experiment, 3D model, CellTiter-Glo (NCI-H358); settings: NCI-H358, 3D sphere plate, 5 days, 2% FBS
Description: as §1

[4] = system: MIA PaCa-2 cells (Kras G12C mutation); experiment: Cell proliferation inhibition experiment, 3D model, CellTiter-Glo (MIA PaCa-2); settings: MIA PaCa-2, 3D sphere plate, 5 days, read-out: MIA-PaCa2 IC50
Description: MIA PaCa2 was a human pancreatic cancer cell line with Kras G12C mutation, cultured in 10% FBS+2.5% Horse serum DMEM medium; A549 was a human lung adenocarcinoma cell line with Kras G12S mutation, cultured in 10% FBS F-12K medium. The cells in the logarithmic growth phase were taken, digested with enzyme EDTA, collected, counted and 200 MIA PaCa-2 or 400 A549 cells were seeded in a 384-well sphere plate respectively, cultured overnight to establish a 3D cell model. DMSO was used to prepare 1000× compound 3.16-fold gradient concentration stock solution, and medium was used to dilute 100-fold to 10× compound stock solution. On the second day after cell seeding, 10× compound stock solution was added to each cell culture well, the final concentration was 1×, and DMSO content was 0.1%. DMSO was used as an experimental control (control), medium as the blank control (blank). After the compound and cells were added and cultured for 5 days, 30 μl CellTiter-Glo working solution was added to each well, mixed and incubated for 30 minutes. After 30 minutes at room temperature, 40 μl of the mixture was transferred to a 384-well plate with a non-transparent white bottom, the luminescence chemiluminescence value was read, and the cells proliferation inhibition rate IR (%)=(RLU control-RLU compound)/(RLU control-RLU blank)×100% was calculated, XLFit four-parameter method was used to fit the compound's gradient dilution concentration and the corresponding cell proliferation inhibition rate, and the IC50 value was calculate.

[5] = Homo sapiens, MIA PaCa-2, 120 h

| SMILES | IC50 ([1]; Homo sapiens, MIA PaCa-2, 2 h) [µM] | IC50 ([2]; Homo sapiens, A549, 120 h) [µM] | IC50 ([3]; Homo sapiens, NCI-H358, 120 h) [µM] | IC50 [1] [µM] | IC50 [3] [µM] | IC50 [2] [µM] | IC50 [4, 5] [µM] | IC50 [4] [µM] |
| --- | --- | --- | --- | --- | --- | --- | --- | --- |
| C=CC(=O)N1CCN2c3nc(=O)n(-c4c(OC)ncnc4C(C)C)c4nc(-c5c(O)cccc5F)c(F)c(c34)OC[C@H]2C1 (single isomer, unassigned) [Compound Z111-1] | 0.186 | > 30 | 0.034 |  |  |  |  |  |
| C=CC(=O)N1CCN2c3nc(=O)n(-c4c(C(C)C)ncnc4C(C)C)c4nc(-c5c(O)cccc5F)c(F)c(c34)OC[C@H]2C1 [Compound Z98] |  | > 10 | 0.001 |  |  |  | 0.002 |  |
| C=CC(=O)N1CCN2c3nc(=O)n(-c4ccccc4C(C)C)c4cc(-c5c(C)ccc6[nH]ncc56)c(Cl)c(c34)OC[C@@H]2C1 (single isomer, unassigned) [Compound Z20-3] |  |  |  |  | 0.0006 | > 10 |  | 0.0005 |
| C=CC(=O)N1CCN2c3nc(=O)n(-c4ccccc4C(C)C)c4cc(-c5c(C)ccc6[nH]ncc56)c(Cl)c(c34)OC[C@@H]2C1 (single isomer, unassigned) [Compound Z20-1] |  |  |  |  | 0.01 | 12.2 |  | 0.017 |
| C=CC(=O)N1CCN2c3nc(=O)n(-c4c(C)ncnc4C4CC4)c4nc(-c5cccc(F)c5F)c(Cl)c(c34)OC[C@H]2C1 [Compound Z106] |  | > 30 | 0.004 |  |  |  | 0.007 |  |
| C=CC(=O)N1CCN2c3nc(=O)n(-c4c(C)ncnc4C4CC4)c4nc(-c5c(O)cccc5F)c(Cl)c(c34)OC[C@H]2C1 [Compound Z103] |  | > 30 | 0.007 |  |  |  | 0.018 |  |
| C=CC(=O)N1CCN2c3nc(=O)n(-c4c(C)ccnc4C(C)C)c4cc(-c5c(C)ccc6[nH]ncc56)c(Cl)c(c34)OC[C@H]2C1 (single isomer, unassigned) [Compound Z30-2] |  |  |  |  | 0.002 | 20.7 |  | 0.005 |
| C=CC(=O)N1CCN2c3nc(=O)n(-c4c(C)ccnc4C(C)C)c4cc(-c5cccnc5N)c(Cl)c(c34)OC[C@H]2C1 [Compound Z41] |  | > 10 | 0.318 |  |  |  | 0.344 |  |
| C=CC(=O)N1CCN2c3nc(=O)n(-c4c(C)ccnc4C4CC4)c4nc(-c5ccccc5F)c(Cl)c(c34)OC[C@H]2C1 (single isomer, unassigned) [Compound Z102-1] |  | 13.3 |  |  | 0.004 |  |  | 0.004 |
| C=CC(=O)N1CCN2c3nc(=O)n(-c4ccccc4C(C)C)c4cc(-c5c(C)ccc6[nH]ncc56)c(Cl)c(c34)OC[C@@H]2C1 (single isomer, unassigned) [Compound Z20-2] |  |  |  |  | 0.046 | 5.95 |  | 0.173 |

More lines, now with the values ahead:

| IC50 ([1]; Homo sapiens, MIA PaCa-2, 2 h) [µM] | IC50 ([2]; Homo sapiens, A549, 120 h) [µM] | IC50 ([3]; Homo sapiens, NCI-H358, 120 h) [µM] | IC50 [1] [µM] | IC50 [3] [µM] | IC50 [2] [µM] | IC50 [4, 5] [µM] | IC50 [4] [µM] | SMILES |
| --- | --- | --- | --- | --- | --- | --- | --- | --- |
|  | > 30 |  | 0.395 | 0.038 |  |  |  | C=CC(=O)N1CCN2c3nc(=O)n(-c4nccnc4C(C)C)c4nc(-c5c(O)cccc5F)c(Cl)c(c34)OC[C@H]2C1 (atropisomer, axis not shown) [Compound Z105-1] |
| 0.027 |  |  |  | 0.003 | > 10 |  |  | C=CC(=O)N1CCN2c3nc(=O)n(-c4c(C)ccnc4C(C)C)c4nc(-c5cccc(C(F)(F)F)c5F)c(Cl)c(c34)OC[C@@H]2C1 (single isomer, unassigned) [Compound Z57-2] |
| 0.128 | > 10 | 0.016 |  |  |  |  |  | C=CC(=O)N1CCN2c3nc(=O)n(-c4c(C)ccnc4C(C)C)c4nc(-c5c(O)cccc5F)c(C=C)c(c34)OC[C@H]2C1 [Compound Z74] |
| 0.019 | 7.78 | 0.004 |  |  |  |  |  | C=CC(=O)N1CCN2c3nc(=O)n(-c4c(C)ccnc4C(C)C)c4nc(-c5ccccc5Cl)c(Cl)c(c34)OC[C@H]2C1 [Compound Z90] |
|  |  |  | 0.027 | 0.003 | > 10 |  |  | C=CC(=O)N1CCN2c3nc(=O)n(-c4c(C)ncnc4C(C)C)c4nc(-c5c(O)cccc5F)c(Cl)c(c34)OC[C@H]2C1 (single isomer, unassigned) [Compound Z88-2] |
|  | > 10 |  | 0.195 | 0.059 |  |  |  | C=CC(=O)N1CCN2c3nc(=O)n(-c4c(C)ncnc4C(C)C)c4nc(-c5cccc(F)c5F)c(Cl)c(c34)OC[C@H]2C1 (single isomer, unassigned) [Compound Z96-1] |
|  |  |  | 0.067 | 0.015 | 9.77 |  |  | C=CC(=O)N1CCN2c3nc(=O)n(-c4c(C)ccnc4C(C)C)c4nc(-c5c(F)cccc5OC)c(Cl)c(c34)OC[C@H]2C1 (single isomer, unassigned) [Compound Z83-2] |
|  | > 10 |  | 0.356 | 0.1 |  |  |  | C=CC(=O)N1CCN2c3nc(=O)n(-c4c(C)ncnc4C(C)C)c4nc(-c5c(O)cccc5F)c(Cl)c(c34)OC[C@H]2C1 (single isomer, unassigned) [Compound Z88-1] |
|  |  |  | 0.023 | 0.002 | 8.3 |  |  | C=CC(=O)N1CCN2c3nc(=O)n(-c4c(C)ccnc4C(C)C)c4nc(-c5cccc(Cl)c5F)c(Cl)c(c34)OC[C@@H]2C1 (single isomer, unassigned) [Compound Z82-2] |
|  |  |  |  | 0.044 | > 10 |  | 0.358 | C=CC(=O)N1CCN2c3nc(=O)n(-c4c(C)ccnc4C(C)C)c4cc(-c5c(O)cccc5F)c(Cl)c(c34)OC[C@H]2C1 (single isomer, unassigned) [Compound Z29-4] |
|  | > 10 | 0.009 |  |  |  | 0.026 |  | C=CC(=O)N1CCN2c3nc(=O)n(-c4c(C)ccnc4C(C)C)c4nc(-c5cc(F)ccc5O)c(Cl)c(c34)OC[C@@H]2C1 [Compound Z55] |
|  | 10.4 |  |  | 0.008 |  | 0.009 |  | C=CC(=O)N1CCN2c3nc(=O)n(-c4c(C)ccnc4C(C)C)c4nc(-c5c(O)cccc5F)c(Cl)c(c34)OC[C@@H]2C1 [Compound Z24, (5 aS)-7-acryloyl-3-chloro-2-(2-fluoro-6-hydroxyphenyl)-12-(2-isopropyl-4-methylpyridin-3-yl)-5,5a,6,7,8,9-hexahydro-4-oxo-1,7,9a,10,12-pentazabenzo[4,5] cyclohepta[1,2,3-de]naphthalen-11 (12H)-one] |
|  | 14.4 | 0.068 |  |  |  | 0.121 |  | C=CC(=O)N1CCN2c3nc(=O)n(-c4c(C)ccnc4C(C)C)c4nc(-c5c(O)cccc5F)cc(c34)OC[C@@H]2C1 (single isomer, unassigned) [Compound Z36-2] |
|  | > 10 | 0.004 |  |  |  | 0.023 |  | C=CC(=O)N1CCN2c3nc(=O)n(-c4c(C)ccnc4C(C)C)c4nc(-c5c(F)ccc(Cl)c5O)c(Cl)c(c34)OC[C@@H]2C1 [Compound Z52, (5 aS)-7-acryloyl-3-chloro-2-(3-chloro-6-fluoro-2-hydroxyphenyl)-12-(2-isopropyl-4-methylpyridin-3-yl)-5,5a,6,7,8,9-hexahydro-4-oxo-1,7,9a,10,12-pentazabenzo[4,5]cyclohepta[1,2,3-de]naphthalen-11 (12H)-one] |
